Results reported in patent US4316898A, “Cephalosporins” (Boehringer Ingelheim KG, priority 1979, dated 1982).
Values after ≈ are worked out from the molar mass of the structure shown.

Experiments:
[1] = tested on: Staphylococcus aureus SG 511; experiment: Serial dilution test in the microtiter system, MIC against S. aureus SG 511; assay type: cell-based; details: SG511, minimum inhibitory concentration, 37° C., 18 to 20 hours
Experimental: (§1) The tests were performed using the serial dilution test in the microtiter system. The effect of the test compounds on bacteriostasis was examined at the following concentrations: 80, 40, 20, 10, 5, 2.5, 1.25, 0.6, 0.3, 0.08 and 0.02 μgm/ml. The nutrient medium consisted of 10 gm of peptone, 8 gm of meat extract oxoid, 3 gm of sodium chloride, and 2 gm of sec. sodium phosphate diluted with distilled water to […] (pH 7.2-7.4). Only in the test against streptococci 1% of glucose was added. The age of the primary cultures was approximately 20 hours. The standardization of the bacteria suspension was effected using a photometer according to the method of Eppendorf (test tube .phi. 14 mm, filter 546 nm), using for comparison a barium sulfate suspension formed by the addition of 3.0 ml of 1% barium chloride solution to 97 ml of 1% sulfuric acid. After the standardization,Streptococcus aronson was further diluted to a concentration of 1:15, and the other bacteria to a concentration of 1:1500, using a sodium chloride solution.
(§2) 16 mgm of the particular test compound were put into a 10 ml measuring flask, and the flask was subsequently filled to the mark with solvent. The further dilution series was standardized with distilled water or the appropriate solvent.
(§3) The cavities of the microtiter plates were filled with 0.2 ml of nutrient medium. 0.01 ml of the appropriate test compound solution was then added, followed by inoculation with 0.01 ml of the standardized bacteria suspension. The bacteria were incubated at 37° C. for 18 to 20 hours. Control tests using only the solvent were carried out simultaneously.
(§4) The measurement was carried out macroscopically to determine the minimum inhibitory concentration (the lowest still bacteriostatically effective concentration).
(§5) The following test organisms were used:
(§6) Staphylococcus aureus SG 511, St. aureus E 88 (β-lactamase carrier), Escherichia coli ATCC 11 775, Pseudomonas aeruginosa Hamburgensis and Pseudomonas aeruginosa Walter, Serratia macrescens ATCC 13 880, Klebsiella pneumoniae ATCC 10 031 and 272, Proteus mirabilis Hamburgensis, Proteus rettgeri Eb. cloaceae ATCC 13047, and E. coli R+TEM (β-lactamase carrier).
(§7) The following tables show the determined minimum inhibitory concentrations (MIC) for a few representative compounds (E=Na) of the present invention, and two known cephalosporins for comparison: […]

Proteus rettgeri = experiment: Serial dilution test in the microtiter system, MIC against Proteus rettgeri; assay type: cell-based; details: Providencia rettgeri; minimum inhibitory concentration; 37° C., 18 to 20 hours; read-out: MIC, Prot. rettg.
Experimental: as §1, §2, §3, §4, §5, §6, §7

[2] = tested on: Pseudomonas aeruginosa Walter; experiment: In vivo test in mice against experimental Pseudomonas infection; parameters: species or system Female NMRI mice; details: Pseudomonas aeruginosa, sc, 168 h; subcutaneous; per dose; dose at which 50% of the animals survived; observation 7 days
Experimental: (§8) A series of the compounds according to the invention was tested in vivo in mice against experimental infections. As pathogenic bacteria were used E. coli ATCC 11775 and Pseudomonas aeruginosa Walter. An intraperitoneal infection was induced in each mouse with 0.2 ml of a 5% mucin suspension of the bacteria corresponding of approximately 1.4×10^6 E. coli cells and 1.3×10^6 Pseudomonas cells per mouse. Female NMRI mice were used, divided into groups of 10 animals. Two groups were untreated and the remaining groups were treated with different doses of the cephalosporins to be tested to determine the ED50 (dose at which 50% of the animals survived). The groups infected with E. coli were on the first day treated with the test compound three times ([…] post infectionem) and on the second day twice. The groups with the Pseudomonas infection were on the first day treated with the test compound six times (1, 3, 5, 7, 9 and 11 hours post infectionem), and on the following two days twice.
(§9) The observation time was in both cases 7 days.

[3] = tested on: Serratia macrescens ATCC 13 880; experiment: Serial dilution test in the microtiter system, MIC against Serratia marcescens ATCC 13880; assay type: cell-based; details: read-out: MIC, Serr. marcesc. ATCC 13880
Experimental: as §1, §2, §3, §4, §5, §6, §7

E. coli ATCC 11775 = experiment: In vivo test in mice against experimental E. coli infection; parameters: species or system Female NMRI mice; details: Escherichia coli, ATCC11775, sc, 168 h; subcutaneous; per dose; dose at which 50% of the animals survived; observation 7 days
Experimental: as §8, §9

Eb. cloaceae ATCC 13047 = experiment: Serial dilution test in the microtiter system, MIC against Eb. cloaceae ATCC 13047; assay type: cell-based; details: minimum inhibitory concentration; 37° C., 18 to 20 hours
Experimental: as §1, §2, §3, §4, §5, §6, §7

[4] = tested on: Pseudomonas aeruginosa Walter; experiment: Serial dilution test in the microtiter system, MIC against Pseudomonas aeruginosa Walter; assay type: cell-based; details: minimum inhibitory concentration, 37° C., 18 to 20 hours, read-out: MIC, Pseud. aerug. Walter
Experimental: as §1, §2, §3, §4, §5, §6, §7

[5] = tested on: Klebsiella pneumoniae 272; experiment: Serial dilution test in the microtiter system, MIC against Klebsiella pneumoniae 272; assay type: cell-based; details: minimum inhibitory concentration, 37° C., 18 to 20 hours, read-out: MIC, Klebs. pneum. 272
Experimental: as §1, §2, §3, §4, §5, §6, §7

[6] = tested on: Klebsiella pneumoniae ATCC 10 031; experiment: Serial dilution test in the microtiter system, MIC against Klebsiella pneumoniae ATCC 10031; assay type: cell-based; details: minimum inhibitory concentration, 37° C., 18 to 20 hours, read-out: MIC, Klebs. pneum. ATCC 10031
Experimental: as §1, §2, §3, §4, §5, §6, §7

E. coli R+TEM = experiment: Serial dilution test in the microtiter system, MIC against E. coli R+TEM (β-lactamase carrier); assay type: cell-based; details: Escherichia coli, read-out: MIC, E. coli R + TEM
Experimental: as §1, §2, §3, §4, §5, §6, §7

St. aureus E 88 = experiment: Serial dilution test in the microtiter system, MIC against S. aureus E 88 (β-lactamase carrier); assay type: cell-based; details: Staphylococcus aureus, E88, minimum inhibitory concentration, 37° C., 18 to 20 hours
Experimental: as §1, §2, §3, §4, §5, §6, §7

[7] = tested on: Pseudomonas aeruginosa Hamburgensis; experiment: Serial dilution test in the microtiter system, MIC against Pseudomonas aeruginosa Hamburgensis; assay type: cell-based; details: minimum inhibitory concentration, 37° C., 18 to 20 hours, read-out: MIC, Pseud. aerug. Hbg.
Experimental: as §1, §2, §3, §4, §5, §6, §7

[8] = tested on: Proteus mirabilis Hamburgensis; experiment: Serial dilution test in the microtiter system, MIC against Proteus mirabilis Hamburgensis; assay type: cell-based; details: minimum inhibitory concentration, 37° C., 18 to 20 hours, read-out: MIC, Prot. Mir. Hbg.
Experimental: as §1, §2, §3, §4, §5, §6, §7

[9] = tested on: Escherichia coli ATCC 11 775; experiment: Serial dilution test in the microtiter system, MIC against E. coli ATCC 11775; assay type: cell-based; details: minimum inhibitory concentration, 37° C., 18 to 20 hours
Experimental: as §1, §2, §3, §4, §5, §6, §7

Compound	MIC [1]	MIC (Proteus rettgeri)	ED50 [2]	MIC [3]	ED50 (E. coli ATCC 11775)	MIC (Eb. cloaceae ATCC 13047)	MIC [4]	MIC [5]	MIC [6]	MIC (E. coli R+TEM)	MIC (St. aureus E 88)	MIC [7]	MIC [8]	MIC [9]
Cn1nnnc1SCC1=C(C(=O)O)N2C(=O)[C@@H](NC(=O)[C@H](NC(=O)Nc3cnc(NCCCO)nc3O)c3ccc(O)cc3)[C@H]2SC1 [E]	1 µg/mL (≈ 1.45 µM)	1 µg/mL (≈ 1.45 µM)	11.2 mg/kg	1 µg/mL (≈ 1.45 µM)	0.8 mg/kg	0.5 µg/mL (≈ 0.727 µM)	8 µg/mL (≈ 11.6 µM)	1 µg/mL (≈ 1.45 µM)	0.5 µg/mL (≈ 0.727 µM)	16 µg/mL	8 µg/mL (≈ 11.6 µM)	4 µg/mL (≈ 5.82 µM)	0.13 µg/mL (≈ 0.189 µM)	0.25 µg/mL (≈ 0.364 µM)
Cn1nnnc1SCC1=C(C(=O)O)N2C(=O)[C@@H](NC(=O)[C@H](NC(=O)Nc3cnc(C4CC4)nc3O)c3ccc(O)cc3)[C@H]2SC1 [A]	0.5 µg/mL (≈ 0.764 µM)	2 µg/mL (≈ 3.05 µM)	15.2 mg/kg	2 µg/mL (≈ 3.05 µM)	1.6 mg/kg	2 µg/mL (≈ 3.05 µM)	8 µg/mL (≈ 12.2 µM)	1 µg/mL (≈ 1.53 µM)	1 µg/mL (≈ 1.53 µM)	8 µg/mL	8 µg/mL (≈ 12.2 µM)	8 µg/mL (≈ 12.2 µM)	0.5 µg/mL (≈ 0.764 µM)	0.5 µg/mL (≈ 0.764 µM)
